Experiment: Precipitation of ligand in crystal soaking solution
Type: physicochemical
Experimental: The pooled fractions were dialyzed against 300 mM NaCl, 10 mM Hepes pH 7.5, 5 mM DTT overnight at 4° C. then concentrated to 10.9 mg/mL in a Vivaspin centrifugal concentrator (MWCO=10 kDa). Crystals were obtained at 20° C. in sitting drop plates using 1 μl of protein and 1 μl of crystallant (20% PEG 3000, 100 mM Citrate pH 5.5) equilibrated against 200 μl of crystallant in the reservoir. Plate-shaped crystals were observed after approximately 24 hours. A single crystal was transferred from the crystallization drop to a plate containing crystallant and 11.5 mM Cpd. No. 1. The crystal was soaked for 22.5 hours in this solution. […] The crystal was transferred to a cryoprotectant containing 20% PEG 3000, 100 mM Citrate pH 5:5, 15% glycerol then plunge frozen into liquid nitrogen for X-ray diffraction analysis.
The pooled fractions were dialyzed against 300 mM NaCl, 10 mM Hepes pH 7.5, 5 mM DTT, 10% glycerol overnight at 4° C. then concentrated to 10.0 mg/mL in a Vivaspin centrifugal concentrator (MWCO=10 kDa). Crystals were obtained at 20° C. in sitting drop plates using 1 μl of protein and 1 μl of crystallant (20% PEG 3000, 100 mM Citrate pH 5.5) equilibrated against 200 μl of crystallant in the reservoir. Plate-shaped crystals were observed after approximately 24 hours. […]

Row | Compound | concentration of the ligand in solution (soak solution 30% PEG 3000, 50 mM Citrate pH 5.5, 5% DMSO, 2.4 mM added, 23.5 hours, some precipitation observed) | precipitation at the end of the soak (crystallant (20% PEG 3000, 100 mM Citrate pH 5.5) with 11.5 mM compound, 22.5 hours)
1 | COc1cc(Nc2ncc(F)c(Nc3ccc4c(n3)NC(=O)C(C)(C)O4)n2)cc(OC)c1OC [Cpd. No. 3] | less than 2.4 mM | –
2 | Oc1cccc(Nc2ncc(F)c(Nc3cccc(O)c3)n2)c1 [Cpd. No. 1] | – | Some precipitation

From patent US7962290B1, “Identification of pharmacophores from co-crystals of spleen tyrosine kinase (SYK) and SYK ligands” (Rigel Pharmaceuticals, Inc., priority 2006, dated 2011)
